Strand notation (5' to 3'): a small letter for the sugar, then the base; units joined by * are phosphorothioate-linked, units joined directly phosphodiester-linked; [ ] holds rarer units or linkages, { } end groups; capitals alone tell only the bases. e = 2'-O-(2-methoxyethyl) (MOE); [5mC] = 5-methylcytosine; d = 2'-deoxy (DNA)

The first data set concerns human PKK mRNA. Kind of data set: Antisense inhibition of human PKK mRNA in HepaRG cells, 5,000 nM (Example 2). In kind it is cell-based. As to conditions: HepaRG cells, electroporation, 5,000 nM antisense oligonucleotide, approx. 24 hours, primer probe set RTS3454, relative to untreated control cells; Table 12. The method in brief: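 Percent inhibition of PKK mRNA is reported relative to untreated cells, after adjustment for total RNA by RIBOGREEN. Gapmers of 16–20 nucleosides with 2′-MOE wings were delivered at 5,000 nM by electroporation into HepaRG cells and left for roughly 24 hours before RNA isolation.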
Consider “547550 (antisense e[5mC]*e[5mC]*e[5mC]*e[5mC]*eA*dT*dG*d[5mC]*dA*dT*dA*d[5mC]*dT*d[5mC]*dG*e[5mC]*e[5mC]*eT*eT*eT) [compound 547550]”, for which the “% inhibition” value amounted to 53%.
Turning to “547551 (antisense eT*e[5mC]*e[5mC]*e[5mC]*e[5mC]*dA*dT*dG*d[5mC]*dA*dT*dA*d[5mC]*dT*d[5mC]*eG*e[5mC]*e[5mC]*eT*eT) [compound 547551]”, the “% inhibition” value is reported as 38%.
As to “547552 (antisense e[5mC]*eT*e[5mC]*e[5mC]*e[5mC]*d[5mC]*dA*dT*dG*d[5mC]*dA*dT*dA*d[5mC]*dT*e[5mC]*eG*e[5mC]*e[5mC]*eT) [compound 547552]”, the “% inhibition” value is given as 53%.
As for “547553 (antisense eT*eG*e[5mC]*eT*e[5mC]*d[5mC]*d[5mC]*d[5mC]*dA*dT*dG*d[5mC]*dA*dT*dA*e[5mC]*eT*e[5mC]*eG*e[5mC]) [compound 547553]”, the “% inhibition” value turned out to be 64%.
On to “547554 (antisense eG*e[5mC]*eT*e[5mC]*eT*dG*dA*dT*dT*dG*dG*dG*dT*d[5mC]*dA*e[5mC]*e[5mC]*eA*e[5mC]*eA) [compound 547554]”, for which the “% inhibition” value is listed as 50%.
With “547555 (eT*eG*eT*e[5mC]*eT*d[5mC]*d[5mC]*dT*dT*d[5mC]*d[5mC]*dA*d[5mC]*dT*dT*eG*e[5mC]*eT*e[5mC]*e[5mC]; antisense) [compound 547555]”, the “% inhibition” value turned out to be 58%.
On to “547556 (eG*e[5mC]*e[5mC]*eA*eT*dT*dT*dT*dA*dT*d[5mC]*d[5mC]*d[5mC]*dT*dG*eA*eG*eA*eT*eT; antisense) [compound 547556]”, for which the “% inhibition” value came out at 55%.
As for “547557 (e[5mC]*eT*eG*eT*eG*d[5mC]*dT*dG*dT*dA*dT*dT*dT*dT*dG*eG*eA*eG*e[5mC]*e[5mC]; antisense) [compound 547557]”, the “% inhibition” value turned out to be 59%.

The data set is the same for the next values; noted with them: Table 13; human PKK mRNA in HepaRG cells; 5-10-5 gapmers.
As for “547558 (e[5mC]*e[5mC]*e[5mC]*e[5mC]*e[5mC]*dA*dG*dT*dT*d[5mC]*d[5mC]*d[5mC]*dA*dT*dG*e[5mC]*eA*eA*eG*eG; antisense) [compound 547558]”, the “% inhibition” value turned out to be 52%.
Take “547559 (eG*eA*eG*e[5mC]*eA*d[5mC]*dA*dG*dA*dT*d[5mC]*dT*d[5mC]*dT*dT*e[5mC]*eA*eA*eG*eT; antisense) [compound 547559]”: the “% inhibition” value is recorded as 69%.
Same read-out and setting: next, “547560 (eG*eA*e[5mC]*eG*eG*dT*d[5mC]*dA*d[5mC]*d[5mC]*d[5mC]*dA*dG*d[5mC]*d[5mC]*e[5mC]*eT*eG*eA*e[5mC]; antisense) [compound 547560]”: 42%; “547561 (eA*eA*eG*eG*eG*dA*dA*dA*dT*dT*dA*dG*dA*dG*dG*e[5mC]*eA*eG*eG*e[5mC]; antisense) [compound 547561]”: 57%; “547562 (e[5mC]*eT*eT*eT*e[5mC]*dT*dT*dG*dA*dG*dA*d[5mC]*dA*dA*dT*e[5mC]*e[5mC]*e[5mC]*eT*eT; antisense) [compound 547562]”: 59%.
On to “547563 (eG*eT*eG*eG*eG*dA*dT*d[5mC]*dA*dG*dA*dG*dA*dA*dT*eG*eA*e[5mC]*eT*eA; antisense) [compound 547563]”, for which the “% inhibition” value was 48%.
For “547565 (e[5mC]*eT*eT*eA*eT*d[5mC]*dA*dG*dT*d[5mC]*d[5mC]*d[5mC]*dA*dG*dT*e[5mC]*eA*eT*eG*eT; antisense) [compound 547565]”, the “% inhibition” value was determined as 63%.
The same measure, in the same setting: next, “547566 (eA*eA*eG*eA*eG*dT*dT*dG*dG*dG*dA*dT*dG*d[5mC]*dG*eA*e[5mC]*eT*e[5mC]*eT; antisense) [compound 547566]”: 76%; “547567 (eT*e[5mC]*e[5mC]*eA*e[5mC]*dT*d[5mC]*d[5mC]*dT*dA*dA*dG*dA*dA*dG*eT*eA*eT*eG*eG; antisense) [compound 547567]”: 60%; “547568 (eG*e[5mC]*eA*e[5mC]*e[5mC]*d[5mC]*dT*dT*dT*dT*d[5mC]*dA*dT*dT*dG*eA*eG*eA*eT*eT; antisense) [compound 547568]”: 70%.
With “547569 (eA*e[5mC]*eT*eA*e[5mC]*d[5mC]*dA*dT*dT*dT*dG*dG*dG*dT*dT*eG*eG*eT*eA*eG; antisense) [compound 547569]”, the “% inhibition” value is 9%.
Still for that read-out and setting: next, “547570 (eA*eA*eG*e[5mC]*e[5mC]*d[5mC]*dT*dG*dT*dT*dT*dG*dG*dT*dT*eT*eT*eT*eA*eG; antisense) [compound 547570]”: 18%.
As to “547571 (eA*eA*eA*eT*eG*dA*d[5mC]*dA*d[5mC]*d[5mC]*dA*dA*dA*dA*dT*eT*eG*eA*eG*eT; antisense) [compound 547571]”, the “% inhibition” value stood at 14%.
On the same count and under the same terms, next, “547572 (eA*eA*eA*eT*eG*dA*d[5mC]*dA*d[5mC]*d[5mC]*dA*dA*dA*dA*dT*eT*e[5mC]*eG*e[5mC]*eT; antisense) [compound 547572]”: 40%; “547573 (eT*eA*eA*eG*e[5mC]*dA*dA*dG*dG*d[5mC]*d[5mC]*dT*dA*dT*dG*eT*eG*eT*eG*eG; antisense) [compound 547573]”: 2%; “547574 (eA*e[5mC]*eA*e[5mC]*eG*d[5mC]*dA*d[5mC]*dA*dG*dG*dT*d[5mC]*d[5mC]*d[5mC]*eA*eG*eG*eG*e[5mC]; antisense) [compound 547574]”: 51%.
“547576 (e[5mC]*eT*eA*eG*eT*dT*dT*d[5mC]*d[5mC]*dT*dA*dT*dA*dA*d[5mC]*eT*eG*e[5mC]*eT*eG; antisense) [compound 547576]”: the “% inhibition” value is 29%.
For the substance “547577 (e[5mC]*eT*eA*eA*e[5mC]*dA*dG*dT*dA*dT*d[5mC]*dA*d[5mC]*dT*dG*eT*eA*e[5mC]*eT*eA; antisense) [compound 547577]”, the “% inhibition” value was determined as 79%.
As to “547578 (eG*eT*e[5mC]*e[5mC]*eT*dA*dT*dA*dA*d[5mC]*dT*d[5mC]*dT*dA*dA*e[5mC]*eA*eG*eT*eA; antisense) [compound 547578]”, the “% inhibition” value stood at 30%.
With “547579 (eT*eG*eT*e[5mC]*e[5mC]*dT*dA*dT*dA*dA*d[5mC]*dT*d[5mC]*dT*dA*eA*e[5mC]*eA*eG*eT; antisense) [compound 547579]”, the “% inhibition” value came out at 0%.
As to “547580 (eA*eT*e[5mC]*eA*e[5mC]*dT*dG*dT*d[5mC]*d[5mC]*dT*dA*dT*dA*dA*e[5mC]*eT*e[5mC]*eT*eA; antisense) [compound 547580]”, the “% inhibition” value turned out to be 61%.
As to “547581 (eA*eT*eA*eT*e[5mC]*dA*d[5mC]*dT*dG*dT*d[5mC]*d[5mC]*dT*dA*dT*eA*eA*e[5mC]*eT*e[5mC]; antisense) [compound 547581]”, the “% inhibition” value is recorded as 60%.
On to “547582 (eT*eA*eT*eA*eT*d[5mC]*dA*d[5mC]*dT*dG*dT*d[5mC]*d[5mC]*dT*dA*eT*eA*eA*e[5mC]*eT; antisense) [compound 547582]”, for which the “% inhibition” value is reported as 22%.
On the same count and under the same terms, next, “547583 (e[5mC]*eA*e[5mC]*eT*eG*dT*d[5mC]*d[5mC]*dT*dA*dT*dA*dT*d[5mC]*dA*e[5mC]*eT*eG*eT*e[5mC]; antisense) [compound 547583]”: 80%.

The same data set, now with this note: human PKK mRNA in HepaRG cells; 5-10-5 gapmers; Table 14.
“547586 (eT*eA*eT*eA*eA*d[5mC]*dA*dG*dT*dA*dT*d[5mC]*dA*d[5mC]*dT*eG*eT*e[5mC]*e[5mC]*eT; antisense) [compound 547586]”: the “% inhibition” value turned out to be 82%.

For the origin of these results see US11840686B2, “Modulation of prekallikrein (PKK) expression” (Ionis Pharmaceuticals, Inc., priority 2013, dated 2023).
